Patent US8637556B2, “Linked Myc-max small molecule inhibitors” (University of Pittsburgh—Of the Commonwealth System of …, priority 2009, dated 2014)
Where two headings read alike, the source gives them in different places.

Columns and labels:
[1] = system: Daudi Burkitt lymphoma cells; test: Burkitt's lymphoma cell growth inhibition (MTT assay); type: cell-based; settings: Homo sapiens
Description: (§1) These assays were performed as previously described using HL60 promyelocytic leukemia cells and Daudi Burkitt lymphoma cells, each of which expresses high levels of endogenous c-Myc (Wang, H. et al. Mol. Cancer Ther. 6, 2399-408 (2007)). As controls for non-specific effects of bivalent compounds, we utilized a c-Myc nulllizygous strain of rat fibroblasts (Mateyak, M. K., et al. Cell Growth & Differentiation 8, 1039-48 (1997)) expressing the c-Myc target genes MT-MC1 and HMGAIb, each of which restores a normal growth rate as well as the TGR1 fibroblast line from which the nullizygous line was derived (Wang, H. et al. Mol. Cancer Ther. 6, 2399-408 (2007); Mateyak, M. K., et al. Cell Growth & Differentiation 8, 1039-48 (1997); and Rothermund, K. et al. Cancer Research 65, 2097-107 (2005)). […] Cell quantification was performed on triplicate wells over the ensuing 4-5 days without changing the medium by measuring the absorbance at 490 nm using the MTT assay (Mosmann, T. Journal of Immunological Methods 65, 55-63 (1983)). IC50 values were estimated from linear regression of the inhibition data at the third day of each experiment.
(§2) We evaluated the efficacy of the linked compounds 11, 12, 13, 16, 17, 18 in inhibiting the c-Myc-Max interaction by measuring the binding of a target DNA sequence (E-Box) by the protein heterodimers in an electrophoretic mobility shift assay (EMSA). […] A fluorinated substitute of 14, 24, the choice of which was based upon the results of structure activity relationship studies described in Wang, H. et al. (Mol. Cancer Ther. 6, 2399-408 (2007)), was employed at this purpose (Muller, K., et al. Science 317, 1881-6 (2007) and Kirk, K. L. Current Topics in Medicinal Chemistry 6, 1447-56 (2006)).

[2] = system: HL60 promyelocytic leukemia cells; test: HL60 cell growth inhibition (MTT assay); type: cell-based; settings: Homo sapiens, HL-60
Description: as §1, §2

[3] = target: T1, c-Myc353-437 (monomeric c-Myc bHLH-ZIP) (Homo sapiens, UniProt P01106); test: Fluorescence polarization titration, c-Myc bHLH-ZIP binding; settings: Table 1; FP of nitrobenzofurazan moiety, c-Myc353-437; read-out: KD (c-Myc affinity, bivalent)
T1 construct: recombinant monomeric c Myc bHLH-ZIP (amino acids 353-437); 6xHis with TEV site (N, cleaved yes); made in house; host or cells: E. coli BL21DE3(pLysS)
T1 sequence (P01106 368-452): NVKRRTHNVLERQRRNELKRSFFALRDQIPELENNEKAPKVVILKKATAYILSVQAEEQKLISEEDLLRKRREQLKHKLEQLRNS
From the text: A c-Myc353-437 full-length bHLH-ZIP domain and its truncated version c-Myc390-439 were produced from the c-Myc/pET SKB3 construct, kindly supplied by Dr. S. K. Nair (University of Illinois, Urbana-Champaign), by insertion into the pET151D vector, encoding an N-terminal hexahistidine (6× His), separated by a TEV protease digestion site, with the TOPO® ligation system, and over-expressed in E. coli BL21DE3(pLysS). The 6× His tagged human Max isoform p21, with low homodimerization affinity^70, cloned into the pQE10 vector (Qiagen, Inc.), was over-expressed in E. coli M15(pRep4). Bacterial cultures were grown at 37° C. in LB medium to OD600≈0.8, then induced with 0.5 mM IPTG for 5 hours. Proteins were purified by Ni-agarose chromatography with a pH gradient elution. The 6× His tag of c-MYC353-437 and c-Myc390-439 was cleaved using TEV protease (the TEV protease was expressed in a pET24 vector [courtesy of S. K. Nair] and purified by Ni-agarose chromatography under native conditions). All the proteins were further purified by HPLC and lyophilized. Protein concentrations were determined by measurement of OD280. The synthetic peptide c-Myc363-381 is described in Follis, A. V., Hammoudeh, D. I., Wang, H., Prochownik, E & Metallo, S. J. Structural rationale for the coupled binding and unfolding of the c-Myc oncoprotein by small molecules. Chemistry & Biology 15, 1149-1155 (2008).
Samples were analyzed in a Photon Technology International QuantaMaster fluorimeter (Birmingham, N.J.) equipped with polymer sheet polarizers. Titration experiments were performed upon serial dilution of 1:1 equimolar solution of inhibitor and either c-Myc353-437, c-Myc390-439 or c-Myc363-381 in a 1×PBS buffer (137 mM NaCl, 2.7 mM KCl, 4.3 mM Na2HPO4, 1.4 mM KH2PO4, pH=7.4), 5% DMSO, over concentrations ranging between 200 μM and 1.5 nM. Excitation and emission wavelengths were independently determined for each inhibitor. Reported data represent the average of at least three independent experiments. Data were fit to a quadratic equation derived from the thermodynamic expression of binding equilibrium:
[formula] where [C]0 represents the total concentration of inhibitor and of c-Myc peptide. The value of KD was determined from the experimental polarization data by fitting to Eq. 2 using KaleidaGraph (Synergy Software, Reading, Pa.) where pol0 is the polarization in the absence of binding and Δpol is the total change in polarization (Park, S. H. & Raines, R. T. Fluorescence polarization assay to quantify protein-protein interactions. Methods in Molecular Biology 261, 161-6 (2004)).
[formula] Due to the very tight binding of some of the tested compounds, it was impossible to perform a full binding titration with an acceptable fluorescence intensity, therefore the polo parameter was experimentally determined from samples of each compound in the absence of c-Myc353-437 at a concentration of 25 μM. Binding specificity experiments were performed by monitoring the FP of 10 μM inhibitors solutions in the above-described buffer in the presence of equimolar p21 Max. […] Circular Dichroism.
Also in this case the c-Myc binding affinity was little affected by the introduction of the linker chain (Table 1, FIG. 11).
We then measured the affinity of the synthesized bivalent inhibitors, by monitoring the FP of the compounds nitrobenzofurazan moiety. […] The estimated free energy of binding of the bivalent compounds was roughly proportional to the sum of those of their monovalent components. In the thermodynamic analysis of multivalent binding a ΔG^s term is used to relate the free energy of binding of a multivalent compound to the sum of those of its monovalent components. This term implies the diverse energy contributions resulting from the linking of independent binding components. The ΔG^s term generally constitutes a negative contribution to the binding affinity of distinct binding components connected by a flexible linker to a given target.

[4] = Table 3, MTT, third day, read-out: Growth inhibition BL
[5] = Table 3, MTT, third day, read-out: Growth inhibition HL60

Compound	IC50 [1, 4] [nM]	IC50 [2, 5] [nM]	Kd [3] [nM]	IC50 ([1]; BL cells, read-out: IC50) [nM]	IC50 ([2]; HL60 cells, read-out: IC50) [nM]
O=C1NC(=S)S/C1=C\c1ccc(C(=O)NCCCCCNC(=O)c2cccc(Nc3ccc([N+](=O)[O-])c4nonc34)c2)cc1 [compound 12, N-[5-({3-[(7-nitro-2,1,3-benzoxadiazol-4-yl)amino]phenyl}formamido)pentyl]-4-{[(5Z)-4-oxo-2-sulfanylidene-1,3-thiazolidin-5-ylidene]methyl}benzamide]	20000 to 35000	> 30000	400 ± 100		
O=C1NC(=S)SC1=Cc1ccc(C(=O)NCCCCCNC(=O)c2ccc(Nc3ccc([N+](=O)[O-])c4nonc34)cc2)cc1 [compound 13]	5000 to 10000	6000	4.7 ± 0.8		
CCc1ccc(/C=C2\SC(=O)N(CCCCCCNC(=O)c3ccccc3Nc3ccc([N+](=O)[O-])c4nonc34)C2=O)cc1 [compound 16, N-{6-[(5Z)-5-[(4-ethylphenyl)methylidene]-2,4-dioxo-1,3-thiazolidin-3-yl]hexyl}-2-[(7-nitro-2,1,3-benzoxadiazol-4-yl)amino]benzamide amine]	700 to 900	500 to 700	2.2 ± 0.2	500 to 1000	500 to 1000
CCc1ccc(C=C2SC(=O)N(CCCCCCNC(=O)c3cccc(Nc4ccc([N+](=O)[O-])c5nonc45)c3)C2=O)cc1 [compound 17]	> 10000	> 30000	110 ± 20		
